How the values were obtained:
Zucker fa/fa obese rats = assay: Long-term treatment (12 months) of Zucker fa/fa obese rats with established obesity; protection of renal function; assay type: in vivo; details: for mortality: after 12 months, untreated obese rats 64%
Description: The Zucker obese rat strain fa/fa is characterized by hyperphagia, obesity, dyslipidemia aid type 2 diabetes resulting in the gradual development of a nephropathy.
A group of Zucker fa/fa obese rats that were not treated, but received the same amount of food as the group treated with 10 mg/kg/day per os, was also formed (pair-fed group).

obese patients = details: clinical studies, cited from earlier work
[1] = Zucker fa/fa obese rats, 3 and 10 mg/kg/day per os for 12 months, vs vehicle
[2] = after 12 months of treatment, 3 and 10 mg/kg/day

In the case of Cc1c(C(=O)NN2CCCCC2)nn(-c2ccc(Cl)cc2Cl)c1-c1ccc(Cl)cc1 [rimonabant, N-piperidino-5-(4-chlorophenyl)-1-(2,4-dichlorophenyl)-4-methylpyrazole-3-carboxamide], the mortality (Zucker fa/fa obese rats; 3 mg/kg/day per os, p<0.05) was 28%, the mortality (Zucker fa/fa obese rats; 10 mg/kg/day per os, p<0.01) was 20% and the “survival of the Zucker fa/fa obese rats” value (Zucker fa/fa obese rats; 3 and 10 mg/kg/day per os) was “very significantly prolongs”. The creatinine clearance (Zucker fa/fa obese rats; [1]) was “partially restored”, the “increase in plasma creatinine level” value (Zucker fa/fa obese rats; [1]) was “decreased in a dose-dependent manner” and the “increase in plasma urea level” value (Zucker fa/fa obese rats; [1]) was “decreased in a dose-dependent manner”. The renal hypertrophy (Zucker fa/fa obese rats; Zucker fa/fa obese rats, 12 months treatment, vs vehicle) was “significantly reduced”, the contractility (Zucker fa/fa obese rats; [2]) was “remain unchanged” and the heart rate (Zucker fa/fa obese rats; [2]) was “remain unchanged”. The left ventricular pressure (Zucker fa/fa obese rats; [2]) was “remain unchanged”, the mean arterial pressure (Zucker fa/fa obese rats; [2]) was “remain unchanged” and the protienuria (Zucker fa/fa obese rats; chronic treatment, 3 and 10 mg/kg/day per os) was “significantly delays”. The “body weight of obese patients” value (obese patients; obese patients) was “reduces” and the food intake (obese patients) was “acts on food intake in quantitative and qualitative terms”.

Reference: patent US7622488B2, “Use of a pyrazole derivative for preparing medicines useful for treating renal diseases” (sanofi-aventis, priority 2005, dated 2009)
